In test [1] the target is FL-SMARCA4 (Homo sapiens, UniProt P51532). In words: SMARCA4 ATPase activity assay (ADP-Glo, chicken mononucleosome substrate). Particulars: FL-SMARCA4 IC50, Table 3.2; ATPase assay, enzyme 5 nM, ATP 250 uM, chicken mononucleosome 10 nM, 30 min preincubation. For orientation: In ADP-Glo the light output rises with the ADP produced.
Test [2] relates to A549 cells. In words: High-throughput proliferation (HTP) assay for A549 cells (CellTiter-Glo, 7 days). The class given is cell-based. The conditions noted are these: Homo sapiens, 168 h, read-out: A549 SMARCA2 IC50. The procedure:
Thawing vials: A549 cells (ATCC #CCL-185™) were thawed from a cryovial containing approximately 1.6×10^6 cells frozen in 70% F12K medium, 20% HI-FBS and 10% DMSO. Cells were thawed by submerging the bottom half of the vial in a 37° C. water bath and gently flicked until almost thawed. The cells were transferred into a 15 mL conical tube containing 9 mL of F12K medium+10% HI-FBS and then centrifuged at 200×g for 4 min before drawing off the media without disturbing the cell pellet in order to remove the DMSO. The cells were resuspended again in 15 mL of F12K fresh complete media+10% HI-FBS and grown up in a T75 flask at 37° C. with 5% CO2 Incubator. Viability was measured to obtain baseline.
Frozen stock vials preparation: The cell culture was transferred to a 50 mL conical tube, spun down to remove medium, and resuspended at 1-2×10^6 cells/mL in complete medium containing 10% DMSO. The culture was then stored for 24 hours at −80 degree C., (with the initial rate of freezing is −1 degree C. per minute in a freezing container), then transferred and stored in liquid nitrogen.
Routine subculture: Sub-confluent cultures (70-80%) were split every 4 days, seeding out at 1-2×10^6 cells/75 cm^2.
Day 0: Assay ready plates were prepared by dispensing 50 nL of compound or DMSO in the appropriate wells of 384-well white CulturPlates using Echo550. Using the Multiflo, A549 cells were plated at 50 μL/well in F12K complete media+10% HI-FBS+1% pen/strep at cell density determined [1,250 cells/mL (62.5 cells/well)] from growth curve.
Treated cells were incubated at 37° C., 5% CO2, relative humidity >90% for 7 days. CellTiter-Glo (CTG) ATP detection reagent was prepared according to manufacturer's specifications. Cell assay plates were removed from the incubator and brought to room temperature (RT). Using the MultiDrop liquid handler, 30 μL of CTG were added per well. Plates were placed on the multidrop dispenser shake for 5 seconds at room temperature (RT). Plates were incubated for 30 minutes in the dark at RT before measuring luminescence using the Envison2104.
Data analysis: Using the DMSO control wells as the 0% inhibition (high signal) control and the 10 μM Doxorubicin control wells as the 100% inhibition (low signal) control, percent inhibition EC50s (inflection point) and IC50 s were calculated for the compound dose responses.
Background: In ATP-based viability assays light output follows the ATP content of the culture.

Test [3] has as its target T1, FL-SMARCA2 (full-length human SMARCA2 isoform 1) (Homo sapiens, UniProt P51531).
T1 construct: FLAG tag (YKDDDDK) (C); made in house; host or cells: Sf21 insect cells (baculovirus, pFastBacI)
In words: SMARCA2 ATPase activity assay (ADP-Glo, chicken mononucleosome substrate). Format: biochemical. Particulars: Table 3.1; ATPase assay, enzyme 5 nM, ATP 250 uM, chicken mononucleosome 10 nM, 30 min preincubation.

T1 sequence (P51531 with tags, fused parts or gaps): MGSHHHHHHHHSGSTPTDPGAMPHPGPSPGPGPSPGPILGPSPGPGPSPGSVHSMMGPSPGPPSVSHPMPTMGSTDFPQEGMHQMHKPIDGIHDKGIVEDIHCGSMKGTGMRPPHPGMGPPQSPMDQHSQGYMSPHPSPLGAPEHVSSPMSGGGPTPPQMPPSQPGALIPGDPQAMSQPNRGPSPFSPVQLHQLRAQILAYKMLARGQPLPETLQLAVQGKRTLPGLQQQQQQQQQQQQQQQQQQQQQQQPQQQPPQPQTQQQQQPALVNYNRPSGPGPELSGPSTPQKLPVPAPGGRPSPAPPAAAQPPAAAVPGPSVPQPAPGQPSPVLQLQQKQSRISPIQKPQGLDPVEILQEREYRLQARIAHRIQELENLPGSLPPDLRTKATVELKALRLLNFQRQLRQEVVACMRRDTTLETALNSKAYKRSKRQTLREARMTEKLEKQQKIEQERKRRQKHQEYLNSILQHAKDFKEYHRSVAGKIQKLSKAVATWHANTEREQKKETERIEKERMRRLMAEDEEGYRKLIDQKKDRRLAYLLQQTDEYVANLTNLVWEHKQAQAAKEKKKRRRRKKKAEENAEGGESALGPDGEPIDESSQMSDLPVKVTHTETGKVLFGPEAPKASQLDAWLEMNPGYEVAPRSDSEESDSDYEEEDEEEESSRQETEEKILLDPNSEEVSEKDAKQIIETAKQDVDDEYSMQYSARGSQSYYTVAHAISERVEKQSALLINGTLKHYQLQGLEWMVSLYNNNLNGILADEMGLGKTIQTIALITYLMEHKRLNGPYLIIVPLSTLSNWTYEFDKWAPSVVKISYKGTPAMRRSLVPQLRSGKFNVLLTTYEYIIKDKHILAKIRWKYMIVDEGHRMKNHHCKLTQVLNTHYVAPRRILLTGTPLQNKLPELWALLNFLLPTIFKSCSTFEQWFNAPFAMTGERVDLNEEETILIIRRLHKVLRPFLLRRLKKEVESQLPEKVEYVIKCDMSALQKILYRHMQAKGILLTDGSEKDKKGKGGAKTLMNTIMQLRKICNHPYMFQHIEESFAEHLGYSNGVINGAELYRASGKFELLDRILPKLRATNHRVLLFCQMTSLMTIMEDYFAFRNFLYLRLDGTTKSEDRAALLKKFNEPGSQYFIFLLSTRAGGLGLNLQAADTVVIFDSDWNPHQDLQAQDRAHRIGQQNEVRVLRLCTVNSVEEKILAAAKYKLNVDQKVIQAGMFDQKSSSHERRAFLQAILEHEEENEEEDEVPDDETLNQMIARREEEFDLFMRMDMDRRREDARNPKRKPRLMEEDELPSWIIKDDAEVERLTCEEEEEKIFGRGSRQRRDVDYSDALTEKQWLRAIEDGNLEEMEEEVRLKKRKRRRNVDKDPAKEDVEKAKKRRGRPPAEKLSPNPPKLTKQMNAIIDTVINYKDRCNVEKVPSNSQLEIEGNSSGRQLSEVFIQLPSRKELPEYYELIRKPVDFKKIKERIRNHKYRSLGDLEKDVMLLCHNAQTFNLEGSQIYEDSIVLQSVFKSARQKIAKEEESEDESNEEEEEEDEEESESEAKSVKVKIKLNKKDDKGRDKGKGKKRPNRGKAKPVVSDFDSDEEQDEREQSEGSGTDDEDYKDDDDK
Sequence of FL-SMARCA4 (P51532 whole entry): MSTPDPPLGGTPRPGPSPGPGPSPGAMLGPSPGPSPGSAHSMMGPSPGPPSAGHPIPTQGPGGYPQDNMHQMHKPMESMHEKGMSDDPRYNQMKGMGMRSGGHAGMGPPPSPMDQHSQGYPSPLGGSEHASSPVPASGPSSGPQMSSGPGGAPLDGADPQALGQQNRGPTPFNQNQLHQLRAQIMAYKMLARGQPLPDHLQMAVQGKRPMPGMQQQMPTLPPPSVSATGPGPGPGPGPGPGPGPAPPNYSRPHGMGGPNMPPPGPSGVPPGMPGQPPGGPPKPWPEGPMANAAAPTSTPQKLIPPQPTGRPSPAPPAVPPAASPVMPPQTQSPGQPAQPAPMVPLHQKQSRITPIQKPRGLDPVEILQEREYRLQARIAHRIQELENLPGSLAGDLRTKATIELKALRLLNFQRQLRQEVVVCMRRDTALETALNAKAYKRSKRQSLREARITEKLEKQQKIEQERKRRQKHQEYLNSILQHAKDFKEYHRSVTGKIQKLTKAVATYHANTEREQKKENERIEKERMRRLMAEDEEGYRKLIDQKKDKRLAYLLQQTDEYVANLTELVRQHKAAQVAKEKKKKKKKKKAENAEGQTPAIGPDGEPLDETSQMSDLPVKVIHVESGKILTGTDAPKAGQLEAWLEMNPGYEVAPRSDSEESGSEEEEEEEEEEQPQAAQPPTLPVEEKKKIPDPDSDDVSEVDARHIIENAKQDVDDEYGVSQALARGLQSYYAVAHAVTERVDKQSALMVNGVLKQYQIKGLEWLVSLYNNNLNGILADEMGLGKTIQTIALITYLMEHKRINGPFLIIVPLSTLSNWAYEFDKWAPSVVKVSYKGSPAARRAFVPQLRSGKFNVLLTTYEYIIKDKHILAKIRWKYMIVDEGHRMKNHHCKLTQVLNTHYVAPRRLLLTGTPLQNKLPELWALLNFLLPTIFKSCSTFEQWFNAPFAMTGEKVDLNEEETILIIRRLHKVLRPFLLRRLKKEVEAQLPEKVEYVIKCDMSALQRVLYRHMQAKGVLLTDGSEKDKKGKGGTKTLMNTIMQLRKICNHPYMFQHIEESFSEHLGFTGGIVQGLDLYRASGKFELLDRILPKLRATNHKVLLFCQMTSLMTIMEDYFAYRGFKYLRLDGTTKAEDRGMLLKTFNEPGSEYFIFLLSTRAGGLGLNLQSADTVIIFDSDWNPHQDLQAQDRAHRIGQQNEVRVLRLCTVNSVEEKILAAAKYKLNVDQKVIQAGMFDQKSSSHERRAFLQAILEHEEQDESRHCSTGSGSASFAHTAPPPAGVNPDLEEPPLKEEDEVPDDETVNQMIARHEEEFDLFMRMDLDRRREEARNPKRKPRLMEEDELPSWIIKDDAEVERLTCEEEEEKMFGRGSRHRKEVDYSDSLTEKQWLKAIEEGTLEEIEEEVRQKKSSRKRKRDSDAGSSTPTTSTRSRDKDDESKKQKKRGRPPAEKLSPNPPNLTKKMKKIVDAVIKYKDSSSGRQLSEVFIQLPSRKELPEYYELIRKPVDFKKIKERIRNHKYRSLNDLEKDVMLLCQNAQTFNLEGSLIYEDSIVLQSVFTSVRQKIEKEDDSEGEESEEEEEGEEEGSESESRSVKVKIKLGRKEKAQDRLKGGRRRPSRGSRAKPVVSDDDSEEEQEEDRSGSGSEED

In general, IC50 refers to the midpoint of a concentration-inhibition curve. On to `N#Cc1cc(C(=O)Nc2ccc(=O)n(CCF)c2)sc1C#N` [Compound 182], for which the IC50 in test [1] was 0.127 µM; in test [2], not below 20 µM; in test [3] it was 0.0355 µM.
On the same counts, the results for `N#Cc1ncc(C(=O)Nc2cc(C#N)c(=O)n(CCF)c2)s1` [Compound 203] are 0.118 µM, not below 20 µM and 0.0407 µM.
Regarding `N#Cc1cc(C(=O)Nc2cc(F)c(=O)n(CC(F)(F)F)c2)sc1Cl` [Compound 207], the IC50 in test [1] was 0.342 µM; in test [2] it was 0.892 µM; in test [3], 0.0729 µM.
As to `Cn1c(C(=O)Nc2cc(F)c(=O)n(CCF)c2)cnc1C#N` [Compound 220], the IC50 in test [1] was 1.93 µM; in test [2] it was not below 20 µM; in test [3] it was 0.488 µM.
On the same counts, the results for `Cc1ncc(C(=O)Nc2cc(F)c(=O)n(CCF)c2)s1` [Compound 222] are 10.2 µM, not below 20 µM and 1.31 µM.
The corresponding values for `COc1ncc(C(=O)Nc2cc(F)c(=O)n(CCF)c2)s1` [Compound 223] are more than 50 µM, not below 20 µM and 18.4 µM.
Consider `N#Cc1[nH]c(C(=O)Nc2ccc(=O)n(CCF)c2)cc1Cl` [Compound 231], for which the IC50 in test [1] was 0.544 µM; in test [2] it was not below 20 µM; in test [3], 0.142 µM.
On the same counts, the results for `N#Cc1[nH]c(C(=O)Nc2cc(F)c(=O)n(CCF)c2)cc1Cl` [Compound 232] are 0.111 µM, 15.5 µM and 0.0249 µM.
On the same counts, the results for `N#Cc1[nH]c(C(=O)Nc2ccc(=O)n(CC(F)(F)F)c2)cc1Cl` [Compound 234] are 1.74 µM, not below 20 µM and 0.478 µM.
On the same counts, the results for `CCn1cc(NC(=O)c2cc(Cl)c(C#N)[nH]2)cc(F)c1=O` [Compound 235] are 0.272 µM, not below 20 µM and 0.0591 µM.
In the case of `CCn1cc(NC(=O)c2cc(Cl)c(C#N)[nH]2)cc(Cl)c1=O` [Compound 236], the IC50 was 0.555 µM in test [1], not below 20 µM in test [2] and 0.125 µM in test [3].
On to `N#Cc1[nH]c(C(=O)Nc2cc(Cl)c(=O)n(CC(F)(F)F)c2)cc1Cl` [Compound 237], for which the concentration for half-maximal inhibition (IC50) was 0.863 µM in test [1], not below 20 µM in test [2] and 0.201 µM in test [3].
The corresponding values for `N#Cc1[nH]c(C(=O)Nc2cc(C#N)c(=O)n(CCF)c2)cc1Cl` [Compound 238] are 0.879 µM, 7.27 µM and 0.232 µM.
On the same counts, the results for `N#Cc1cc(C(=O)Nc2cc(Cl)c(=O)n(CCF)c2)[nH]c1Cl` [Compound 240] are 2.39 µM, not below 20 µM and 0.626 µM.
Consider `N#Cc1[nH]c(C(=O)Nc2cc(F)c(=O)n(CC(F)(F)F)c2)cc1Cl` [Compound 242], for which the IC50 in test [1] came out at 0.168 µM; in test [2] it was 17.4 µM; in test [3], 0.0389 µM.
On to `O=C(Nc1cc(F)c(=O)n(CCF)c1)c1cc(Cl)c(F)s1` [Compound 251], for which the IC50 was 0.623 µM in test [1], 5.46 µM in test [2] and 0.131 µM in test [3].
On the same counts, the results for `O=C(Nc1cc(F)c(=O)n(CCF)c1)c1cnc([N+](=O)[O-])s1` [Compound 275] are 2.1 µM, not below 20 µM and 0.381 µM.
Consider `CS(=O)(=O)c1csc(C(=O)Nc2cc(F)c(=O)n(CCF)c2)c1` [Compound 302], for which the figures for the IC50 in test [1], in test [2] and in test [3] were more than 50 µM, more than 10 µM and more than 50 µM, respectively.
As to `CS(=O)(=O)c1cc(C(=O)Nc2cc(F)c(=O)n(CCF)c2)sc1Cl` [Compound 307], the IC50 in test [1] was determined as 3.27 µM; in test [3], 0.94 µM.
For `O=C(Nc1cc(F)c(=O)n(CCF)c1)c1cc(CO)c(Cl)s1` [Compound 308], the IC50 in test [1] is more than 50 µM; in test [3], 23.3 µM.
`NS(=O)(=O)c1sc(C(=O)Nc2cc(F)c(=O)n(CCF)c2)cc1Cl` [Compound 309]: the IC50 in test [1] was more than 50 µM; in test [3] it was 29.6 µM.
`NS(=O)(=O)c1cc(C(=O)Nc2cc(F)c(=O)n(CCF)c2)sc1Cl` [Compound 310]: the IC50 in test [1] and in test [3] was more than 50 µM throughout.
Take `Cn1cnc(-c2ccc(C(=O)Nc3cc(F)c(=O)n(CCF)c3)s2)c1` [Compound 311]: the IC50 in test [1] and in test [3] was more than 50 µM each time.
For `O=C(Nc1cc(F)c(=O)n(CCF)c1)c1ccc(-c2ccn[nH]2)s1` [Compound 312], the IC50 in test [1] and in test [3] was more than 50 µM throughout.
On to `O=C(Nc1cc(F)c(=O)n(CCF)c1)c1ccc(-c2cccnc2)s1` [Compound 313], for which the IC50 in test [1] and in test [3] was more than 50 µM each time.
Regarding `O=C(Nc1cc(F)c(=O)n(CCF)c1)c1ccc(-c2ccncc2)s1` [Compound 314], the IC50 in test [1] and in test [3] was more than 50 µM in each case.
For `CC(=O)Nc1sc(C(=O)Nc2cc(F)c(=O)n(CCF)c2)cc1Cl` [Compound 315], the IC50 in test [1] and in test [3] was more than 50 µM in each case.
Regarding `Cn1ccnc1-c1ccc(C(=O)Nc2cc(F)c(=O)n(CCF)c2)s1` [Compound 316], the IC50 in test [1] and in test [3] was more than 50 µM in each case.
On to `O=C(Nc1cc(F)c(=O)n(CCF)c1)c1ccc(-c2nccs2)s1` [Compound 317], for which the IC50 in test [1] and in test [3] was more than 50 µM each time.
For `O=C(Nc1cc(F)c(=O)n(CC(F)F)c1)c1cc(-c2nnco2)c(Cl)s1` [Compound 318], the IC50 in test [1] was found to be 13.5 µM; in test [3], 2.88 µM.
In the case of `O=C(Nc1cc(F)c(=O)n(CCF)c1)c1cc(Cl)c(CC(F)(F)F)s1` [Compound 319], the IC50 amounted to 16.6 µM in test [1] and 1.32 µM in test [3].
Take `N#Cc1cc(C(=O)Nc2ccc(=O)n(CC(F)F)c2)sc1Cl` [Compound 320]: the IC50 in test [1] is 0.562 µM; in test [3], 0.151 µM.
In the case of `O=C(Nc1cc(F)c(=O)n(CCF)c1)c1ccc(C(F)(F)CO)s1` [Compound 322], the IC50 in test [1] and in test [3] was more than 50 µM each time.
For the compound `O=C(Nc1cc(F)c(=O)n(CC(F)F)c1)c1cc(Cl)no1` [Compound 326], the IC50 is 17.2 µM in test [1] and 3.78 µM in test [3].
On the same counts, the results for `O=C(Nc1cc(F)c(=O)n(CCF)c1)c1cc(C#Cc2cccnc2)c(Cl)s1` [Compound 328] are 0.108 µM and 0.0384 µM.
The corresponding values for `O=C(Nc1cc(F)c(=O)n(CC(F)F)c1)c1cc(C#Cc2cccnc2)c(Cl)s1` [Compound 329] are 0.111 µM and 0.0312 µM.
On the same counts, the results for `CC(F)Cn1cc(NC(=O)c2cc(Cl)c(C(F)(F)F)s2)cc(F)c1=O` (stereo not shown) [Compound 331] are 0.924 µM and 0.172 µM.
With `Nc1c(C(=O)Nc2cc(F)c(=O)n(CC(F)F)c2)sc(Cl)c1Cl` [Compound 332], the IC50 in test [1] was determined as 2.2 µM; in test [3] it was 0.331 µM.
On the same counts, the results for `CCn1cc(NC(=O)c2cc(C#Cc3ccncc3)c(Cl)s2)ccc1=O` [Compound 334] are 0.337 µM and 0.182 µM.
Turning to `CNc1c(C(=O)Nc2cc(F)c(=O)n(CC(F)F)c2)sc(Cl)c1Cl` [Compound 335], the IC50 is 45.1 µM in test [1] and 7.46 µM in test [3].
In the case of `O=C(Nc1cc(C(F)(F)F)c(=O)n(CC(F)F)c1)c1cc(F)c(Cl)s1` [Compound 336], the values for the IC50 in test [1], in test [2] and in test [3] were 5.87 µM, more than 10 µM and 1.24 µM, respectively.
For the compound `O=C(Nc1cc(Cl)c(=O)n(CC(F)F)c1)c1cc(F)c(Cl)s1` [Compound 337], the half-inhibitory concentration (IC50) in test [1] was 0.104 µM; in test [2] it was 0.769 µM; in test [3], 0.0337 µM.
Turning to `N#Cc1cc(NC(=O)c2cc(F)c(Cl)s2)cn(CC(F)F)c1=O` [Compound 338], the IC50 in test [1] amounted to 0.363 µM; in test [2], 3.21 µM; in test [3] it was 0.089 µM.
For the compound `CSc1cc(C(=O)Nc2cc(F)c(=O)n(CC(F)F)c2)sc1Cl` [Compound 341], the values for the IC50 in test [1] and in test [3] were 9.28 µM and 0.668 µM, respectively.

These data come from patent publication US20220356174A1, “PYRIDIN-2-ONE COMPOUNDS USEFUL AS SMARCA2 ANTAGONISTS” (Epizyme, Inc., priority 2018, published 2022).
